Test results from article PMC3130785, “Small Compound 6-O-Angeloylplenolin Induces Mitotic Arrest and Exhibits Therapeutic Potentials in Multiple Myeloma” (PLoS ONE, 2011).

Key:
Type in all cases: cell-based, human
pCdc2 (Y15) = assay: Western blotting; details: U266, MM.1S and CD138+ primary cells
Experimental: (§1) Cell pellets were lysed in RIPA buffer containing 50 mM Tris pH 8.0, 150 mM NaCl, 0.1% SDS, 0.5% deoxycholate, 1% NP-40, 1 mM DTT, 1 mM NaF, 1 mM sodium vanadate, and protease inhibitors cocktail (Sigma). For immunoprecipitations, cells were lysed on ice for 15 minutes in RIPA buffer. Lysates were centrifuged. The supernatant was incubated with indicated antibodies overnight, after which protein A/G Plus beads (Santa Cruz Biotechnology) were added and incubated for 3 h. The beads were washed 4 times in RIPA buffer. Then the beads were resuspended in 1× sample buffer and boiled for 3 min. Protein extracts were quantitated and loaded on 8% to 12% sodium dodecyl sulfate polyacrylamide gel, electrophoresed, and transferred to a nitrocellulose membrane (Whatman). The membrane was incubated with primary antibody, washed, and incubated with horseradish peroxidase (HRP)–conjugated secondary antibody (Pierce). Detection was performed by using a chemiluminescent western detection kit (Cell Signaling). […]
(§2) Figure 3 6-OAP accumulates cyclin B1 which is required for mitotic arrest. […] After co-incubation with 6-OAP for 18 h, the cells were then harvested and detected by Leica DMI 400B microscope (D), or analyzed by flow cytometry for the cell cycle distribution (E). To evaluate cell growth, the cells were treated with 6-OAP for indicated time points and analyzed by trypan blue exclusion assay (F). […] (H) U266 cells were treated without or with 7.5 µM 6-OAP for 24 h, and stained with anti-α-tubulin and anti-BubR1 antibodies to visualize microtubules (green), BubR1 (red), and DAPI to counter stained DNA (blue), and analyzed by confocal microscopy. […]

cyclin B1 = assay: Western blotting; details: U266, MM.1S and CD138+ primary cells
Experimental: as §1, §2

cyclin D1 = assay: Western blotting; details: U266 and MM1.S cells; 12 to 48 h
Experimental: as §1, §2

[1] = test system: normal PBMCs from 5 healthy volunteers; assay: MTT assay on normal PBMCs; details: 48 h
Excerpt: CD138+ cells from 7 MM patients were isolated with informed consent from BM mononuclear cells by using positive immunomagnetic column separation (Miltenyi Biotech, Auburn, CA). The purity of CD138+ cells is above 97% as determined by flow cytometry. BMSCs were generated from a MM patient-derived CD138-negative BM mononuclear cells cultured for 5 weeks. Peripheral blood mononuclear cells (PBMCs) from 5 healthy donors were separated by Ficoll-Hipaque density sedimentation.
U266, RPMI 8226 cells (1×10^4), primary CD138+ cells, PBMCs (5×10^4), and BMSCs (1×10^4) were cultured in 96-well dishes and incubated without or with 6-OAP at indicated concentration for 48 h. MM.1S and MM.1R cells (2×10^4) were seeded into 96-well dishes and pre-cultured for 24 h, then treated with 6-OAP for 48 h. Cell proliferation was determined by MTT assay. Cell viability was estimated by trypan blue dye exclusion.

CC=C(C)C(=O)OC1C2C(CC(C)C3C=CC(=O)C31C)OC(=O)C2C (stereo not shown) [6-OAP, 6-O-angeloylplenolin]
pCdc2 (Y15) level (pCdc2 (Y15)): decrease of tyrosine-15-phosphorylated Cdc2
cyclin B1 level (cyclin B1): increase of cyclin B1
cyclin D1 level (cyclin D1): down-regulated
growth of normal PBMCs [1]: did not drastically affect the growth
